Where a SMILES comes first, the peptide text is derived from it. [ ]: non-standard residue; d: D form. The star is where a group is joined. NHCH2CH2OH = OCCN*; For = O=C*
Tests used:
[1] = system: Streptococcus pyogenes SSI-9; experiment: Antibacterial activity assay of bead-derived peptides (three concentrations); format: cell-based; parameters: key: +++: inhibition by the 640-fold diluted peptide solution; ++: inhibition by the 160-fold diluted solution; +: inhibition by the 40-fold diluted solution; -: no inhibition; details: S. pyogenes, bead-derived peptide solution, three concentrations
Method in brief: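 Library peptide stock applied undiluted, 4-fold and 16-fold diluted in DMSO to S. pyogenes SSI-9 (2 × 10^5 CFU) in cation-adjusted Mueller Hinton broth with 5% laked horse blood. After 18 h at 37 °C, growth judged by visible cell precipitation.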

[2] = system: P388 mouse leukemia cells; details: 92 h
Method in brief: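 P388 cells at 1 × 10^4 cells/mL (final) were exposed to library peptides (stocks diluted 250-fold in RPMI1640/10% FBS) for 92 h at 37 °C, 5% CO2. Viable cells were counted by WST-1/1-methoxy PMS (4 h), absorbance 415 nm, and expressed as cell viability (%).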

[3] = H+/Na+ transport assay of bead-derived peptides (one-point); format: biochemical; parameters: key: relative activity; mean of two control wells = 1.00; details: bead-derived peptide solution, EYPC/EYPG LUVs;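 note: relative to parent gramicidin A activity set to 1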
Method in brief: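 H+/Na+ transport is monitored through pyranine fluorescence in freshly extruded LUVs after a 30-min room-temperature vortex with each library peptide at a single concentration. Signals are normalized to detergent (Triton X-100) and untreated controls.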

Structure (SMILES)	antibacterial activity [1]	cell viability/% [2] [%]	H+/Na+ transport activity normalized against the value of 1 (1.00) [3]
CC(C)C[C@@H](NC(=O)[C@H](C)NC(=O)CNC(=O)[C@@H](NC=O)C(C)C)C(=O)N[C@@H](C)C(=O)N[C@H](CC(C)C)C(=O)N[C@H](C(=O)N[C@@H](C(=O)N[C@@H](Cc1c[nH]c2ccccc12)C(=O)N[C@@H](C(=O)N[C@@H](Cc1c[nH]c2ccccc12)C(=O)N[C@H](CC(C)C)C(=O)N[C@@H](Cc1c[nH]c2ccccc12)C(=O)N[C@H](CC(C)C)C(=O)N[C@@H](Cc1c[nH]c2ccccc12)C(=O)NCCO)C(C)C)C(C)C)C(C)C [compound 8858] (For-VGA[dL]A[dL]V[dV]W[dV]W[dL]W[dL]W-NHCH2CH2OH)	+	84.7	1.05
CNC(=O)C[C@@H](NC(=O)[C@@H](NC(=O)[C@H](NC(=O)[C@H](C)NC(=O)[C@H](NC(=O)[C@H](C)NC(=O)CNC(=O)[C@@H](NC=O)C(C)C)C(C)C)C(C)C)C(C)C)C(=O)N[C@@H](Cc1c[nH]c2ccccc12)C(=O)N[C@H](CC(C)C)C(=O)N[C@@H](Cc1c[nH]c2ccccc12)C(=O)N[C@H](CC(C)C)C(=O)N[C@@H](Cc1c[nH]c2ccccc12)C(=O)N[C@H](CC(C)C)C(=O)N[C@@H](Cc1c[nH]c2ccccc12)C(=O)NCCO [compound 6862] (For-VGA[dV]A[dV]V[dD](NHMe)W[dL]W[dL]W[dL]W-NHCH2CH2OH)	-	100.0	1.31
CC(C)C[C@@H](NC(=O)[C@H](C)NC(=O)[C@H](NC(=O)[C@H](C)NC(=O)CNC(=O)[C@@H](NC=O)C(C)C)C(C)C)C(=O)N[C@H](C(=O)N[C@H](CC(C)C)C(=O)N[C@@H](Cc1c[nH]c2ccccc12)C(=O)N[C@H](CC(C)C)C(=O)N[C@@H](Cc1c[nH]c2ccccc12)C(=O)N[C@@H](C(=O)N[C@@H](Cc1c[nH]c2ccccc12)C(=O)N[C@H](CC(C)C)C(=O)N[C@@H](Cc1c[nH]c2ccccc12)C(=O)NCCO)[C@H](C)O)C(C)C [compound 4209] (For-VGA[dV]A[dL]V[dL]W[dL]W[dT]W[dL]W-NHCH2CH2OH)	-	96.2	1.33
CNC(=O)C[C@@H](NC(=O)[C@@H](NC(=O)[C@H](NC(=O)[C@H](C)NC(=O)[C@@H](CC(C)C)NC(=O)[C@H](C)NC(=O)CNC(=O)[C@@H](NC=O)C(C)C)C(C)C)C(C)C)C(=O)N[C@@H](Cc1c[nH]c2ccccc12)C(=O)N[C@H](CC(C)C)C(=O)N[C@@H](Cc1c[nH]c2ccccc12)C(=O)N[C@H](CC(C)C)C(=O)N[C@@H](Cc1c[nH]c2ccccc12)C(=O)N[C@@H](C(=O)N[C@@H](Cc1c[nH]c2ccccc12)C(=O)NCCO)C(C)C [compound 8831] (For-VGA[dL]A[dV]V[dD](NHMe)W[dL]W[dL]W[dV]W-NHCH2CH2OH)	-	81.1	1.23
CC(C)C[C@@H](NC(=O)[C@H](C)NC(=O)CNC(=O)[C@@H](NC=O)C(C)C)C(=O)N[C@@H](C)C(=O)N[C@H](CC(C)C)C(=O)N[C@H](C(=O)N[C@@H](C(=O)N[C@@H](Cc1c[nH]c2ccccc12)C(=O)N[C@@H](C(=O)N[C@@H](Cc1c[nH]c2ccccc12)C(=O)N[C@@H](C(=O)N[C@@H](Cc1c[nH]c2ccccc12)C(=O)N[C@@H](C(=O)N[C@@H](Cc1c[nH]c2ccccc12)C(=O)NCCO)[C@H](C)O)C(C)C)C(C)C)C(C)C)C(C)C [compound 9735] (For-VGA[dL]A[dL]V[dV]W[dV]W[dV]W[dT]W-NHCH2CH2OH)	-	100.0	1.18
CNC(=O)C[C@@H](NC(=O)[C@@H](NC(=O)[C@H](NC(=O)[C@H](C)NC(=O)[C@@H](CC(C)C)NC(=O)[C@H](C)NC(=O)CNC(=O)[C@@H](NC=O)C(C)C)C(C)C)C(C)C)C(=O)N[C@@H](Cc1c[nH]c2ccccc12)C(=O)N[C@@H](C(=O)N[C@@H](Cc1c[nH]c2ccccc12)C(=O)N[C@@H](C(=O)N[C@@H](Cc1c[nH]c2ccccc12)C(=O)N[C@H](CC(C)C)C(=O)N[C@@H](Cc1c[nH]c2ccccc12)C(=O)NCCO)C(C)C)C(C)C [compound 12636] (For-VGA[dL]A[dV]V[dD](NHMe)W[dV]W[dV]W[dL]W-NHCH2CH2OH)	-	100.0	1.21
CNC(=O)C[C@@H](NC(=O)[C@H](Cc1c[nH]c2ccccc12)NC(=O)[C@@H](CC(C)C)NC(=O)[C@@H](NC(=O)[C@@H](CC(C)C)NC(=O)[C@H](C)NC(=O)[C@H](NC(=O)[C@H](C)NC(=O)CNC(=O)[C@@H](NC=O)C(C)C)C(C)C)C(C)C)C(=O)N[C@@H](Cc1c[nH]c2ccccc12)C(=O)N[C@@H](C(=O)N[C@@H](Cc1c[nH]c2ccccc12)C(=O)N[C@@H](C(=O)N[C@@H](Cc1c[nH]c2ccccc12)C(=O)NCCO)C(C)C)C(C)C [compound 5380] (For-VGA[dV]A[dL]V[dL]W[dD](NHMe)W[dV]W[dV]W-NHCH2CH2OH)	-	100.0	1.05
CC(C)C[C@@H](NC(=O)[C@H](C)NC(=O)CNC(=O)[C@@H](NC=O)C(C)C)C(=O)N[C@@H](C)C(=O)N[C@H](CC(C)C)C(=O)N[C@H](C(=O)N[C@@H](C(=O)N[C@@H](Cc1c[nH]c2ccccc12)C(=O)N[C@@H](C(=O)N[C@@H](Cc1c[nH]c2ccccc12)C(=O)N[C@@H](C(=O)N[C@@H](Cc1c[nH]c2ccccc12)C(=O)N[C@H](CC(C)C)C(=O)N[C@@H](Cc1c[nH]c2ccccc12)C(=O)NCCO)C(C)C)[C@H](C)O)C(C)C)C(C)C [compound 6950] (For-VGA[dL]A[dL]V[dV]W[dT]W[dV]W[dL]W-NHCH2CH2OH)	-	100.0	1.06
CC(C)C[C@@H](NC(=O)[C@H](C)NC(=O)[C@H](NC(=O)[C@H](C)NC(=O)CNC(=O)[C@@H](NC=O)C(C)C)C(C)C)C(=O)N[C@H](C(=O)N[C@H](CC(C)C)C(=O)N[C@@H](Cc1c[nH]c2ccccc12)C(=O)N[C@H](CC(C)C)C(=O)N[C@@H](Cc1c[nH]c2ccccc12)C(=O)N[C@@H](C(=O)N[C@@H](Cc1c[nH]c2ccccc12)C(=O)N[C@@H](C(=O)N[C@@H](Cc1c[nH]c2ccccc12)C(=O)NCCO)[C@H](C)O)C(C)C)C(C)C [compound 5370] (For-VGA[dV]A[dL]V[dL]W[dL]W[dV]W[dT]W-NHCH2CH2OH)	++	100.0	1.18
CC(C)C[C@@H](NC(=O)[C@H](C)NC(=O)[C@H](NC(=O)[C@H](C)NC(=O)CNC(=O)[C@@H](NC=O)C(C)C)C(C)C)C(=O)N[C@H](C(=O)N[C@H](CC(C)C)C(=O)N[C@@H](Cc1c[nH]c2ccccc12)C(=O)N[C@@H](C(=O)N[C@@H](Cc1c[nH]c2ccccc12)C(=O)N[C@H](CC(C)C)C(=O)N[C@@H](Cc1c[nH]c2ccccc12)C(=O)N[C@@H](C(=O)N[C@@H](Cc1c[nH]c2ccccc12)C(=O)NCCO)C(C)C)C(C)C)C(C)C [compound 9742] (For-VGA[dV]A[dL]V[dL]W[dV]W[dL]W[dV]W-NHCH2CH2OH)	+	0.0	1.21

Source: publication PMC7531004, “Discovery of gramicidin A analogues with altered activities by multidimensional screening of a one-bead-one-compound library” (Nature Communications, 2020)
